# Measurements reported in US20250041294A1, “Synergistic compositions for use in the treatment of cancer” (Sartar Therapeutics Oy, priority 2021, published 2025).
# Read-outs that look alike come from different tables or passages of the source.
# How the values were obtained:
# Assay type in all cases: cell-based
# GOT3 cell line = assay: High throughput drug sensitivity and resistance test (CellTiter-Glo, 72 hours); details: GOT3; for GOT3 cell line: DSS(combo (BAY2666605))-DSS(drug): drug combined with BAY2666605 (40 nM) minus drug alone; for GOT3 cell line: DSS(combo (anagrelide))-DSS(drug): drug combined with anagrelide hydrochloride (100 nM) minus drug alone
# Protocol: (§1) Cell lines. PDE3A-positive (GIST882, SA4, and GOT3) and PDE3A-negative cell lines (93TT449, 94T778, LPS141, MLS17656-92, MLS402-91, and SW872) were cultured in RPMI Medium 1640 (Gibco) with 5-, 10- or 20% fetal bovine serum (FBS, gibco), 100 U/mL of penicillin, 100 […] and 0.03 mg/mL of L-glutamine (Pen Strep Glut, Gibco, 10378-016) in a humidified, 5% CO2 atmosphere at 37° C.
# (§2) High throughput drug sensitivity and resistance test. A sensitivity and resistance of cancer cell lines to 528 compounds were investigated in 9 cell lines (GIST882, SA4, GOT3, 93TT449, 94T778, LPS141, MLS17656-92, MLS402-91, and SW872). In addition, same compounds were investigated together with anagrelide hydrochloride (100 nM) treatment in the PDE3A low expressing cell lines SA4 and GOT3, and with BAY2666605 (40 nM) in all PDE3A-positive cell lines GIST882, SA4 and GOT3. The compounds were dissolved in 100% dimethyl sulfoxide or water and plated in 10-fold dilutions covering a 10,000-fold concentration range on flat clear bottom 384-well microplates as described in detail earlier (Pulkka O P, et al 2019). A cell viability was measured after 72 hours using CellTiter-Glo Cell Viability assay (Promega Inc.) and PHERAstar FS plate reader (BMG Labtech). The data were normalized to negative (0.01% dimethyl sulfoxide only) and positive (100 μmol/L benzethonium chloride) controls.
# (§3) A four-parameter logistic dose-response curves were estimated by using the Marquardt-Levenberg algorithm and Breeze analysis platform. Drug responses to the test compounds were measured using the drug sensitivity score (DSS). Drug synergy partners, which were common in investigated cell lines were identified as following: DSS value of a single agent was subtracted from the DSS value of anagrelide-drug combination in single cell lines. […] The analysis was repeated by using BAY2666605 as a PDE3A modulator.
# SA4 cell line = assay: as above; details: SA4; for SA4 cell line: DSS(combo (BAY2666605))-DSS(drug): drug combined with BAY2666605 (40 nM) minus drug alone; for SA4 cell line: DSS(combo (anagrelide))-DSS(drug): drug combined with anagrelide hydrochloride (100 nM) minus drug alone
# Protocol: as §1, §2, §3
# GIST882 cell line = assay: as above; details: drug combined with BAY2666605 (40 nM) minus drug alone
# Protocol: High throughput drug sensitivity and resistance test. […] In addition, same compounds were investigated together with anagrelide hydrochloride (100 nM) treatment in the PDE3A low expressing cell lines SA4 and GOT3, and with BAY2666605 (40 nM) in all PDE3A-positive cell lines GIST882, SA4 and GOT3. […] A cell viability was measured after 72 hours using CellTiter-Glo Cell Viability assay (Promega Inc.) and PHERAstar FS plate reader (BMG Labtech). The data were normalized to negative (0.01% dimethyl sulfoxide only) and positive (100 μmol/L benzethonium chloride) controls.
# as §3
# GOT3 and SA4 cell lines = assay: High throughput drug sensitivity and resistance test, average over cell lines (anagrelide combination); details: anagrelide combination, average of SA4 and GOT3; aDSS higher than 3.0 = synergy
# Protocol: as §1, §2, §3
# [1] = system: GIST882, GOT3 and SA4 cell lines; assay: High throughput drug sensitivity and resistance test, average over cell lines (BAY2666605 combination); details: for Average DSS (aDSS): BAY2666605 combination, average of GIST882, SA4 and GOT3, aDSS higher than 3.0 = synergy
# Protocol: as §1, §2, §3
# [2] = with anagrelide (GOT3, SA4) or BAY2666605 (GIST882, GOT3, SA4)
Compound,GOT3 cell line: DSS(combo (BAY2666605))-DSS(drug) (GOT3 cell line),GOT3 cell line: DSS(combo (anagrelide))-DSS(drug) (GOT3 cell line),SA4 cell line: DSS(combo (BAY2666605))-DSS(drug) (SA4 cell line),SA4 cell line: DSS(combo (anagrelide))-DSS(drug) (SA4 cell line),GIST882 cell line: DSS(combo (BAY2666605))-DSS(drug) (GIST882 cell line),Average DSS (aDSS) (GOT3 and SA4 cell lines),Average DSS (aDSS) [1],"synergy in high-throughput screening (in words) [1, 2]",synergy in high-throughput screening (in words) [1]
"CN(C)Cc1c(C(=O)NCCOc2ccc(C(=O)NO)cc2)oc2ccccc12 [Abexinostat, abexinostat]",2.1,−1.1,12.3,10.9,4.2,4.9,6.2,synergistic,–
"O=C(/C=C/c1cccc(S(=O)(=O)Nc2ccccc2)c1)NO [Belinostat, belinostat]",0.8,1.1,15.8,10,−0.3,5.55,5.4,synergistic,–
"Cn1c(=O)n(-c2ccc(C(C)(C)C#N)cc2)c2c3cc(-c4cnc5ccccc5c4)ccc3ncc21 [Dactolisib, dactolisib]",8.2,–,4.6,–,3.1,–,5.3,synergistic,–
"NC(=O)/C(=C/n1cnc(-c2cc(C(F)(F)F)cc(C(F)(F)F)c2)n1)c1cncnc1 [Eltanexor, eltanexor]",0.8,–,3.1,–,5.4,–,3.1,synergistic,–
"CCN(CC)Cc1ccc2cc(COC(=O)Nc3ccc(C(=O)NO)cc3)ccc2c1 [Givinostat, givinostat]",3,−0.7,18.5,10,7.3,4.65,9.6,synergistic,–
"COc1cc(C(=O)O)ccc1NC(=O)[C@@H]1N[C@@H](CC(C)(C)C)[C@](C#N)(c2ccc(Cl)cc2F)[C@H]1c1cccc(Cl)c1F [Idasanutlin, idasanutlin]",−0.5,−1,19.6,8.5,0,3.75,6.4,synergistic,–
CO[C@@H](C)Cn1c(=O)n(C)c2cnc3ccc(-c4cncc(C(C)(C)O)c4)cc3c21 [LY3023414],1.5,–,9.3,–,2.4,–,4.4,synergistic,–
COc1ccc(-c2ccc3ncc4c(c3c2)n(-c2ccc(N3CCNCC3)c(C(F)(F)F)c2)c(=O)n4C)cn1 [NVP-BGT226],0.1,–,8.1,–,6.2,–,4.8,synergistic,–
CC(=O)c1cnc2ccc(-c3cc(Cl)c(O)c(Cl)c3)nc2c1N[C@H]1CC[C@H](CN(C)C)CC1 [OTS167],3.2,0.6,10.5,10.5,1.9,5.55,5.2,synergistic,–
"COc1ncc(-c2ccc3nccc(-c4ccnnc4)c3c2)cc1NS(=O)(=O)c1ccc(F)cc1F [Omipalisib, omipalisib]",−0.4,–,6.5,–,7.4,–,4.5,synergistic,–
"Cc1[nH]c2ccccc2c1CCNCc1ccc(/C=C/C(=O)NO)cc1 [Panobinostat, panobinostat]",8.2,−0.5,6.7,11.7,6.1,5.6,7.0,–,–
"CC(C)N(C[C@H]1O[C@@H](n2cnc3c(N)ncnc32)[C@H](O)[C@@H]1O)[C@H]1C[C@@H](CCc2nc3cc(C(C)(C)C)ccc3[nH]2)C1 [Pinometostat, pinometostat]",0,–,9.8,–,3.9,–,4.6,synergistic,–
"CCCCc1nc2cc(/C=C/C(=O)NO)ccc2n1CCN(CC)CC [Pracinostat, pracinostat]",1.5,−1.4,12,14.8,5.7,6.7,6.4,synergistic,–
"CN(C)Cc1ccc(S(=O)(=O)n2ccc(/C=C/C(=O)NO)c2)cc1 [Resminostat, resminostat]",3.1,−0.1,11.7,13.5,3.1,6.7,6.0,synergistic,–
"CO[C@H]1C[C@@H]2CC[C@@H](C)[C@@](O)(O2)C(=O)C(=O)N2CCCC[C@H]2C(=O)O[C@H]([C@H](C)C[C@@H]2CC[C@@H](OP(C)(C)=O)[C@H](OC)C2)CC(=O)[C@H](C)/C=C(\C)[C@@H](O)[C@@H](OC)C(=O)[C@H](C)C[C@H](C)/C=C/C=C/C=C/1C [Ridaforolimus, ridaforolimus]",−1.9,4.4,13.7,13.2,0.3,8.8,–,–,–
"O=C(CCCCCCNC(=O)c1cnc(N(c2ccccc2)c2ccccc2)nc1)NO [Rocilinostat, rocilinostat]",0.9,–,7.5,–,1.4,–,3.3,–,synergistic
O=C(/C=C\n1cnc(-c2cc(C(F)(F)F)cc(C(F)(F)F)c2)n1)NNc1cnccn1 [Selinexor],−0.7,–,5.4,–,7.9,–,4.2,synergistic,–
"Cn1nnc2c(C(N)=O)ncn2c1=O [Temozolomide, temozolomide]",1.9,–,5.2,–,5.4,–,4.2,–,–
"CN1CCc2c(c3ccccc3n2Cc2ccc(C(=O)NO)cc2)C1 [Tubastatin A, tubastatin A]",2.8,–,10.7,–,−0.3,–,4.4,synergistic,–
